{"source": "patent US11099176B2", "about": "(priority 2015, dated 2021)", "key": {"[1]": {"biological_target": "Marinobacter sp. msLacBP6 variant G170C, SEQ ID NO: 36, Acrylodan conjugate", "test": "Fluorescence titration of conjugate", "type": "binding", "settings": "λ1 518, λ2 490 nm"}, "[2]": {"system": "Anaeromyxobacter dehalogenans adLacBP9, YP_466099.1, SEQ ID NO: 9 (expressed form SEQ ID NO: 23)", "test": "Lactate binding by thermal stability shift and labeled conjugate", "settings": "thermostability vs ligand concentration; fluorescence response of labeled conjugate", "description": "(§1) These experiments comprise four successive steps: • 1. Synthetic gene construction. The amino acid sequence of the homology leads are back translated into DNA sequences. These are optimized for directing heterologous cytoplasmic expression of the protein homologues in E. coli, using either the OrfOpt or OrfMorph programs. These programs predict mRNA sequences that direct high-level protein expression in E. coli. The predicted gene sequences are assembled de novo from synthetic oligonucleotides. • 2. Heterologous protein expression of the homologues in E. coli. Plasmids carrying the synthetic expression constructs (see above) were transformed into KRX competent cells (Promega). Protein production was induced in bacterial cultures of these cultures. • 3. Purification of successfully expressed protein using immobilized metal affinity chromatography. • 4.\n(§2) The thermal stability of purified LacBP candidate proteins was determined by measuring the temperature-dependence of the fluorescence signal of an extrinsically added dye, SYPRO, using a Roche LightCycler (Layton and Hellinga, 2010, Biochemistry, 49, 10831-41). The total fluorescence intensity, S, is given by S=βFfF+βUfU 11 where fF and fU are the fractions of protein in the folded and unfolded states, respectively, and βF and βUthe fluorescence baselines of these two states. To get the fractions of the two states, we have\n(§3) To obtain the temperature dependence of the binding reaction, the Kd values of all the individually determined isotherms were fit the Gibbs-Hemholtz equation (Layton and Hellinga, 2010, Biochemistry, 49, 10831-41): […]"}, "[3]": {"biological_target": "T1, Flexistipes sinusarabici fsLacBP13, YP_004603455.1, SEQ ID NO: 13 (expressed form SEQ ID NO: 27) (Flexistipes sinusarabici, UniProt F8E724)", "T1 construct": "thermal shift", "T1 sequence (F8E724 entry or part of it)": "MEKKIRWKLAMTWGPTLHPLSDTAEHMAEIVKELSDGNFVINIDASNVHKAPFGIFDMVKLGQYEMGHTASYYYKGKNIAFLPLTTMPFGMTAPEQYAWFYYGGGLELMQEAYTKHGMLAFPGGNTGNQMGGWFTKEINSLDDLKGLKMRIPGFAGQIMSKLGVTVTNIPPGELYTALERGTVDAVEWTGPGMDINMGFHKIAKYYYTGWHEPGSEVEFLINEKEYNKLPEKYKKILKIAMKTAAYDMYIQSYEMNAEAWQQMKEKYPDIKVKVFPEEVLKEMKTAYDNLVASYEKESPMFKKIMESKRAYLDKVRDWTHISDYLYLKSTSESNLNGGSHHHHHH", "test": "Lactate binding by thermal stability shift and labeled conjugate", "settings": "thermostability vs ligand concentration; fluorescence response of labeled conjugate", "description": "as §1, §2, §3"}, "[4]": {"biological_target": "Pseudomonas stuztzeri psLacBP11, YP_006522676.1, SEQ ID NO: 11 (expressed form SEQ ID NO: 25) (Stutzerimonas nitrititolerans, UniProt A0ABX9V4I2)", "sequence (A0ABX9V4I2 entry or part of it)": "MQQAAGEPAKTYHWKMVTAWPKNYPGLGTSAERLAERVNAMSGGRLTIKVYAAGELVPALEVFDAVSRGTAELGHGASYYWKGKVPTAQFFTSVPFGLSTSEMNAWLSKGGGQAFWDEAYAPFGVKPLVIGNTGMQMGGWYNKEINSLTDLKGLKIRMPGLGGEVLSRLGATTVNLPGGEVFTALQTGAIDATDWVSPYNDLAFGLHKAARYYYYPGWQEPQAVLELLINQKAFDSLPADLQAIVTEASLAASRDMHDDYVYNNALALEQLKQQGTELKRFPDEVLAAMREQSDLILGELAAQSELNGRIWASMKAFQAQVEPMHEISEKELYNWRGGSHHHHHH", "test": "Lactate binding by thermal stability shift and labeled conjugate", "settings": "thermostability vs ligand concentration; fluorescence response of labeled conjugate", "description": "as §1, §2, §3"}, "[5]": {"biological_target": "T2, Flexistipes sinusarabici fsLacBP13 variant W188C, SEQ ID NO: 47, Acrylodan conjugate (Flexistipes sinusarabici, UniProt F8E724, W211C)", "T2 construct": "Acrylodan on Cys188", "T2 sequence (F8E724 entry or part of it W211C)": "as the sequence (F8E724 entry or part of it) above, with W188C counted along it", "test": "Fluorescence titration of conjugate", "type": "binding"}, "[6]": {"biological_target": "Marinobacter sp. msLacBP6 variant 187C, F68L, SEQ ID NO: 49, Badan conjugate", "test": "Fluorescence titration of conjugate (affinity tuning)", "type": "binding", "settings": "λ1 463, λ2 535 nm"}, "[7]": {"biological_target": "T3, Marinobacter adhaerens maLacBP8 variant F189C, SEQ ID NO: 43, Acrylodan conjugate (Marinobacter adhaerens, UniProt E4PNW2, C105A/C90A/F252C)", "T3 construct": "Acrylodan on Cys189", "T3 sequence (E4PNW2 entry or part of it C90A/C105A/F252C)": "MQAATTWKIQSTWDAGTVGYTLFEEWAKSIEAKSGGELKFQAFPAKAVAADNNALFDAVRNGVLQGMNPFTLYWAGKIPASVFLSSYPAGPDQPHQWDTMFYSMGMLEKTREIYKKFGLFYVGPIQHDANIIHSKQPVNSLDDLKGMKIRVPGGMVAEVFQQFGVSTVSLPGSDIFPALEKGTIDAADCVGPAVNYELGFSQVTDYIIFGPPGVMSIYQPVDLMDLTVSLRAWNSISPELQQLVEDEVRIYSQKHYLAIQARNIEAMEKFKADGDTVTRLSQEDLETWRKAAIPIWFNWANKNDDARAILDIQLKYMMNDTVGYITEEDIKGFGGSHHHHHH", "test": "Fluorescence titration of conjugate", "type": "binding"}, "[8]": {"system": "Marinobacter sp. msLacBP6 187C mutants (variants of Table 7)", "test": "Affinity summary of msLacBP6 187C affinity-tuning mutants", "type": "binding", "description": "In the PCS we mutated F68 (F98 in ttLacBP1) and D220 (D250 in ttLacBP1). […] It could therefore be considered part of a secondary complementary surface layer (SCS). In the interface we mutated L70 (L100 in ttLacBP1), which is located at the periphery of the lactate-binding site, and forms a contact from the N- to the C-terminal domain across the inter-domain interface.\nBoth PCS and SCS mutations perturbed the spectral shapes of the lactate-mediated responses. […] These affinity-tuned sensors therefore provide a suitable set for clinical chemistry applications."}, "[9]": {"biological_target": "Marinobacter sp. msLacBP6 variant Y187C (187C), SEQ ID NO: 38, Acrylodan conjugate", "test": "Fluorescence titration of conjugate", "type": "binding"}, "[10]": {"biological_target": "Marinobacter sp. msLacBP6 variant 187C, F68M, SEQ ID NO: 50, Badan conjugate", "test": "Fluorescence titration of conjugate (affinity tuning)", "type": "binding", "settings": "λ1 464, λ2 527 nm"}, "[11]": {"biological_target": "Marinobacter sp. msLacBP6 variant W11C, Acrylodan conjugate", "test": "Fluorescence titration of conjugate", "type": "binding", "settings": "λ1 473, λ2 520 nm"}, "[12]": {"biological_target": "Marinobacter sp. msLacBP6 variant 187C, L70M, SEQ ID NO: 53, Badan conjugate", "test": "Fluorescence titration of conjugate (affinity tuning)", "type": "binding", "settings": "λ1 459, λ2 539 nm"}, "[13]": {"biological_target": "T4, Marinobacter adhaerens maLacBP8 variant F189C, SEQ ID NO: 43, Badan conjugate (Marinobacter adhaerens, UniProt E4PNW2, C105A/C90A/F252C)", "T4 construct": "Badan on Cys189", "T4 sequence (E4PNW2 entry or part of it C90A/C105A/F252C)": "as above", "test": "Fluorescence titration of conjugate", "type": "binding"}}, "note": "Read-outs that look alike come from different tables or passages of the source."}
{"smiles": "C[C@H](O)C(=O)O", "note": "[lactate]", "values": [{"measurement": "Kd", "setting": "[1]; read-out: appKd (lactate)", "result": 10, "unit": "µM"}, {"measurement": "Kd", "setting": "[1]; read-out: trueKd (lactate)", "result": 5, "unit": "µM"}, {"measurement": "Lactate Binding", "setting": "[2]", "result": "weak^f,g"}, {"measurement": "Lactate Binding", "setting": "[3]", "result": "weak^f,g"}, {"measurement": "Lactate Binding", "setting": "[4]", "result": "weak^f,g"}, {"measurement": "Kd", "setting": "[5]", "result": "> 100000", "unit": "µM"}, {"measurement": "Kd", "setting": "[5]; read-out: trueKd (lactate), λ1 482, λ2 450 nm", "result": "> 100000", "unit": "µM"}, {"measurement": "Kd", "setting": "[6]; read-out: appKd (lactate)", "result": 400, "unit": "µM"}, {"measurement": "Kd", "setting": "[6]; read-out: trueKd (lactate)", "result": 400, "unit": "µM"}, {"measurement": "Kd", "setting": "[7]", "result": 1500, "unit": "µM"}, {"measurement": "effect of F68 mutations on lactate affinity", "setting": "[8]; F68 mutations in 187C background", "result": "did not greatly affect lactate affinity"}, {"measurement": "Kd", "setting": "[8]; read-out: lactate affinities (range over variants), msLacBP6 Acrylodan and Badan conjugate variants", "result": "200 to 24000", "unit": "µM"}, {"measurement": "Kd", "setting": "[9]; read-out: appKd (lactate), approximate, text statement for Acrylodan and Badan conjugates", "result": "~400", "unit": "µM"}, {"measurement": "Kd", "setting": "[9]; read-out: appKd (lactate), λ1 452, λ2 482 nm as printed in Table 5", "result": 400, "unit": "µM"}, {"measurement": "Kd", "setting": "[9]; read-out: appKd (lactate), λ1 452, λ2 582 nm (FIG. 5A, Table 7)", "result": 400, "unit": "µM"}, {"measurement": "Kd", "setting": "[9]; read-out: appKd (lactate), λ1 483, λ2 451 nm (Table 6)", "result": 230, "unit": "µM"}, {"measurement": "Kd", "setting": "[9]; read-out: trueKd (lactate), λ1 452, λ2 482 nm as printed in Table 5", "result": 300, "unit": "µM"}, {"measurement": "Kd", "setting": "[9]; read-out: trueKd (lactate), λ1 452, λ2 582 nm (FIG. 5A, Table 7)", "result": 300, "unit": "µM"}, {"measurement": "Kd", "setting": "[9]; read-out: trueKd (lactate), λ1 483, λ2 451 nm (Table 6)", "result": 350, "unit": "µM"}, {"measurement": "Kd", "setting": "[10]; read-out: appKd (lactate)", "result": 500, "unit": "µM"}, {"measurement": "Kd", "setting": "[10]; read-out: trueKd (lactate)", "result": 600, "unit": "µM"}, {"measurement": "Kd", "setting": "[11]; read-out: appKd (lactate)", "result": 400, "unit": "µM"}, {"measurement": "Kd", "setting": "[11]; read-out: trueKd (lactate)", "result": 400, "unit": "µM"}, {"measurement": "Kd", "setting": "[12]; read-out: appKd (lactate)", "result": 1100, "unit": "µM"}, {"measurement": "Kd", "setting": "[12]; read-out: trueKd (lactate)", "result": 700, "unit": "µM"}, {"measurement": "Kd", "setting": "[13]", "result": 600, "unit": "µM"}]}
